Some test systems named below: MDA-N; DLD-1 colon; DMS 273 small cell lung; HOP-18 NSCLC; M19-MEL melanoma; SNB-78 CNS; LXFL 529 NSCLC; XF 498 CNS; RXF-631 renal.
Holding throughout (test): NCI-60 cell line screen, 48 h

Molecules are shown by their SMILES. “And” between values parts separate entries of the source, which are not always exact repeats. Equal values may be shown once.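 Briefly, cells in 96-well plates were exposed to five compound concentrations for 48 h, and endpoints were estimated by linear interpolation. Abbreviation: GI50, concentration required for 50% inhibition of growth. The concentration for full growth arrest is given as TGI.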 Where only a bound is given, the exact number is not on record here.

In the case of `COc1ccc(C(CC(=O)c2ccc3c(c2)OCO3)c2c(O)c3ccccc3oc2=O)cc1OC` (stereo not drawn), the TGI in the test on MDA-N was greater than 100 µM.

On to `CC(C)(C)c1ccc2c(c1)S(=O)(=O)Nc1ccc(Cl)cc1NS(=O)(=O)c1cc(C(C)(C)C)ccc1OCCOCCOCCO2`, for which the TGI in the test on DLD-1 colon, in the test with DMS 273 small cell lung, with HOP-18 NSCLC, with M19-MEL melanoma and in the test on SNB-78 CNS was greater than 100 µM in each case.

Consider `Cc1ccc(C)c(N2C/C(=N\NC(=O)CC#N)C(c3nc4ccccc4s3)C(=O)C2=O)c1` (stereo not drawn), for which the TGI with DLD-1 colon, with DMS 273 small cell lung, with HOP-18 NSCLC, in the test on LXFL 529 NSCLC, in the test on M19-MEL melanoma and with SNB-78 CNS was greater than 100 µM each time. This compound gave a TGI with XF 498 CNS greater than 100 µM.

Regarding `COC(c1ccc(C(C)(C)C)cc1)(c1ccc(C(C)(C)C)cc1)c1ccc(C(C)(C)C)cc1`, in the test on MDA-N, the TGI was greater than 100 µM.

Consider `COc1cccc(/C=N/[N-]C(=O)c2ccncc2)c1[O-].COc1cccc(/C=N/[N-]C(=O)c2ccncc2)c1[O-].[O]=[U](=[O])([OH2+])[OH2+]`, for which the GI50 in the test with DLD-1 colon was 4.19 µM; with DMS 273 small cell lung, 4.2 µM; in the test with HOP-18 NSCLC it was 12.1 µM; with LXFL 529 NSCLC, greater than 33.7 µM; with M19-MEL melanoma, 5.83 µM; in the test with SNB-78 CNS, greater than 87.7 µM. In addition, the GI50 with XF 498 CNS is 4.75 µM. Besides, the TGI with DLD-1 colon is greater than 100 µM; in the test on DMS 273 small cell lung, greater than 56.6 µM; in the test on HOP-18 NSCLC, 88.6 µM; in the test with LXFL 529 NSCLC, greater than 100 µM; in the test on M19-MEL melanoma it was greater than 100 µM; in the test on SNB-78 CNS, greater than 100 µM. In addition, in the test with XF 498 CNS, the TGI turned out to be 37.6 µM.

Consider `COC(=O)C1C(O)C(C(=O)OC)C(C)N(C)C1C` (stereo not drawn), for which, in the test on MDA-N, the TGI was greater than 100 µM.

On to `CCN1c2ccccc2-c2c3c1cc(C)cc3c1ccccc1[n+]2CC`, for which the TGI is 17.8 µM with DLD-1 colon; 1.58 µM in the test with DMS 273 small cell lung; 1.86 µM in the test with LXFL 529 NSCLC; 1.27 µM in the test with M19-MEL melanoma; 43.4 µM in the test on RXF-631 renal; 12 µM in the test on SNB-78 CNS.

Consider `Nc1ccccc1C(=O)/C=C/c1c(O)ccc2ccccc12`, for which the TGI with DLD-1 colon is greater than 100 µM; in the test with DMS 273 small cell lung, greater than 100 µM; in the test on HOP-18 NSCLC, greater than 100 µM; with LXFL 529 NSCLC, greater than 100 µM; in the test on M19-MEL melanoma it was 43.4 µM; in the test on RXF-631 renal, greater than 100 µM. Besides, the TGI in the test with SNB-78 CNS was greater than 100 µM.

As to `Cc1[nH]c2ccccc2c1C1Cc2ccccc2N1C(=O)C#Cc1ccc([N+](=O)[O-])cc1` (stereo not drawn), the TGI in the test on DLD-1 colon, in the test with HOP-18 NSCLC, in the test with LXFL 529 NSCLC, in the test on SNB-78 CNS and with XF 498 CNS was greater than 100 µM each time.

In the case of `N#CC(=Nc1ccccc1N(C(=O)c1ccccc1)C(=O)c1ccccc1)c1ccccc1`, the TGI in the test on DLD-1 colon, in the test with DMS 273 small cell lung, with HOP-18 NSCLC, in the test with LXFL 529 NSCLC, in the test on M19-MEL melanoma and with SNB-78 CNS was greater than 100 µM throughout. In addition, the TGI in the test with XF 498 CNS is greater than 100 µM.

Take `COc1cc(/C=C2\[C@H]3c4c(c(OC)c(C)c(OC)c4OC)CC(C(=O)N2Cc2ccccc2)N3C)c(OC)c(C)c1OC`: the TGI is greater than 100 µM in the test on DLD-1 colon; 38.6 µM in the test on DMS 273 small cell lung; 50.2 µM in the test with HOP-18 NSCLC; 43.9 µM in the test with LXFL 529 NSCLC; 33.1 µM in the test on M19-MEL melanoma.

In the case of `CC(C(=O)c1ccc(Cl)cc1)/C(=N/NC(=O)NN)C(=O)Nc1cccc(C(F)(F)F)c1` (stereo not drawn), the TGI in the test on DLD-1 colon, with DMS 273 small cell lung, with HOP-18 NSCLC, in the test with LXFL 529 NSCLC, with M19-MEL melanoma and in the test with RXF-631 renal was greater than 100 µM throughout. For the same compound, the TGI in the test with SNB-78 CNS and in the test with XF 498 CNS was greater than 100 µM each time.

For `COC(=O)c1cc2c(o1)-c1nccc3c1c(nc1ccccc13)C2=O`, in the test on MDA-N, the GI50 was 0.691 µM and the TGI came out at 2.22 µM.

Regarding `CCOC(=O)NC(=O)c1cn(C2CCCCC2)c(=O)[nH]c1=O`, the TGI in the test on DLD-1 colon, with DMS 273 small cell lung, in the test on HOP-18 NSCLC, in the test on LXFL 529 NSCLC, in the test with M19-MEL melanoma and in the test with RXF-631 renal was greater than 100 µM each time. Also, the TGI in the test on SNB-78 CNS and in the test with XF 498 CNS was greater than 100 µM throughout.

On to `COc1c(C)n(CCO)ccc1=O`, for which the TGI in the test with DLD-1 colon, in the test with DMS 273 small cell lung, in the test on LXFL 529 NSCLC, in the test with M19-MEL melanoma, in the test with RXF-631 renal and in the test on SNB-78 CNS was greater than 100 µM in each case. In addition, the TGI with XF 498 CNS was greater than 100 µM.

As for `Cc1ccccc1C1=[N+]([O-])c2ccc(Cl)cc2C1=O`, the TGI with DLD-1 colon is 19.6 µM; in the test with HOP-18 NSCLC it was 35.4 µM; in the test on LXFL 529 NSCLC, 24.3 µM; in the test on M19-MEL melanoma it was 21.2 µM; with RXF-631 renal, 16.8 µM; in the test on XF 498 CNS it was 14.3 µM.

With `CN(C)C(=S)SSC(=S)N(C)C`, the TGI in the test with DLD-1 colon was greater than 64 µM; with DMS 273 small cell lung, greater than 100 µM; with HOP-18 NSCLC, greater than 100 µM; with LXFL 529 NSCLC it was greater than 100 µM; with M19-MEL melanoma, greater than 40 µM; with MDA-N, 30.3 µM and 50.9 µM. The results for the TGI with RXF-631 renal, with SNB-78 CNS and in the test on XF 498 CNS were greater than 100 µM, greater than 100 µM and greater than 88.3 µM, respectively.

As to `CCC1CN2CCc3cc(OC)c(OC)cc3C2CC1CC1c2cc(OC)c(OC)cc2CCN1C(=O)C1CCCN1` (stereo not drawn), the TGI is 77.4 µM in the test with DLD-1 colon; greater than 100 µM in the test with DMS 273 small cell lung; greater than 100 µM in the test with HOP-18 NSCLC; 64.4 µM in the test on LXFL 529 NSCLC; 36.6 µM with M19-MEL melanoma; 90.8 µM in the test on RXF-631 renal. Also, the TGI with SNB-78 CNS is greater than 100 µM; in the test with XF 498 CNS, 39.2 µM.

In the test on MDA-N, `CCC(C)(O)c1cnc(CC(C)C)c(=O)n1O` (stereo not drawn) had a TGI greater than 100 µM.
